Results reported in ChEMBL document CHEMBL3120101, “Synthesis, biological evaluation, hydration site thermodynamics, and chemical reactivity analysis of α-keto substituted peptidomimetics for the inhibition of Plasmodium falciparum” (Bioorg Med Chem Lett, 2014).

What was measured:
[1] = test system: Plasmodium falciparum; assay: Antimicrobial activity against chloroquine-resistant Plasmodium falciparum W2 assessed as growth inhibition; type: functional, organism-based
[2] = target: T1, Falcipain 2 (Plasmodium falciparum, UniProt Q9N6S8); assay: Inhibition of Plasmodium falciparum cysteine protease falcipain-2
T1 sequence (Q9N6S8 whole entry): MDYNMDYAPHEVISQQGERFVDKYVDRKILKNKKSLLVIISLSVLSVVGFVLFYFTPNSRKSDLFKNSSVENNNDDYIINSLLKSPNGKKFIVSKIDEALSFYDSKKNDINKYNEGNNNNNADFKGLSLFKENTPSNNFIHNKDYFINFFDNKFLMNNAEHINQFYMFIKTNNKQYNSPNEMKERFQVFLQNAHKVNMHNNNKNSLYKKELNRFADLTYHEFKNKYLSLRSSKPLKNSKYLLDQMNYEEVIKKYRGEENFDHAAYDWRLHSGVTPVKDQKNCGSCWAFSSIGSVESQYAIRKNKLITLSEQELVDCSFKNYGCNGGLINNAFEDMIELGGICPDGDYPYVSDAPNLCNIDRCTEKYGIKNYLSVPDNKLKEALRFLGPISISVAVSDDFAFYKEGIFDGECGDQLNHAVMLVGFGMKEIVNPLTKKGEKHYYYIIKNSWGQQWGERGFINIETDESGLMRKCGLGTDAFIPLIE

[3] = target: T2, Cysteine protease falcipain-3 (Plasmodium falciparum, UniProt Q9NAW4); assay: Inhibition of Plasmodium falciparum cysteine protease falcipain-3
T2 sequence (Q9NAW4 whole entry): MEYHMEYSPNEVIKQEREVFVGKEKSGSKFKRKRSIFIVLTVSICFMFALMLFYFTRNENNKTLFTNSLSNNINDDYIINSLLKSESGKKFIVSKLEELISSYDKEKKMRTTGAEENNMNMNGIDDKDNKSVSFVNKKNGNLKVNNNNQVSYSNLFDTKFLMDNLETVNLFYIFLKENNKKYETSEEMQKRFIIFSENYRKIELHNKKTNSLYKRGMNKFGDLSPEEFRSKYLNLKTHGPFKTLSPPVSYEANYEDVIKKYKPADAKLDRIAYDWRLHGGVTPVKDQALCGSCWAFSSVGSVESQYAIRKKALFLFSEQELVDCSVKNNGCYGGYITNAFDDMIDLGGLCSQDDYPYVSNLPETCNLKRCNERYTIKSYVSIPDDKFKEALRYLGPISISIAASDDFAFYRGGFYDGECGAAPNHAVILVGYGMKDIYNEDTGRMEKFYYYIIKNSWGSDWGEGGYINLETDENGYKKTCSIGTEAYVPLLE

| SMILES | IC50 [1] [µM] | IC50 [2] [µM] | IC50 [3] [µM] |
| --- | --- | --- | --- |
| O=C(CO)[C@H](CCc1ccccc1)NC(=O)[C@@H]1CCCN1C(=O)OCc1ccccc1 | > 50 | > 50 | > 50 |
| O=C(CSCCCc1ccccc1)[C@H](CCc1ccccc1)NC(=O)[C@@H]1CCCN1C(=O)OCc1ccccc1 | 13.8 | 48.1 | > 50 |
| CC(=O)SCC(=O)[C@H](CCc1ccccc1)NC(=O)[C@@H]1CCCN1C(=O)OCc1ccccc1 | 18.1 | > 50 | 36.4 |
| CC(=O)OCC(=O)[C@H](CCc1ccccc1)NC(=O)[C@@H]1COC(C)(C)N1C(=O)OCc1ccccc1 | > 50 | > 50 | > 50 |
| CC1(C)OC[C@@H](C(=O)N[C@@H](CCc2ccccc2)C(=O)CO)N1C(=O)OCc1ccccc1 | > 50 | > 50 | > 50 |
| O=C(N[C@H]1CCCC[C@H]1C(=O)N[C@@H](CCc1ccccc1)C(=O)CO)OCc1ccccc1 | > 50 | 5.52 | 0.54 |
| O=C(N[C@@H]1CCCC[C@@H]1C(=O)N[C@@H](CCc1ccccc1)C(=O)CO)OCc1ccccc1 | 47.6 | 4.42 | 0.91 |
| O=C(N[C@H]1CC=CC[C@H]1C(=O)N[C@@H](CCc1ccccc1)C(=O)CO)OCc1ccccc1 | > 50 | > 50 | 20.2 |
| O=C(N[C@H]1CCC[C@H]1C(=O)N[C@@H](CCc1ccccc1)C(=O)CO)OCc1ccccc1 | > 50 | > 50 | 23.9 |
| CC(=O)OCC(=O)[C@H](CCc1ccccc1)NC(=O)[C@@H]1Cc2ccccc2CN1C(=O)OCc1ccccc1 | > 50 | > 50 | > 50 |
| O=C(CO)[C@H](CCc1ccccc1)NC(=O)[C@@H]1Cc2ccccc2CN1C(=O)OCc1ccccc1 | > 50 | > 50 | > 50 |
| O=C1CCC(NC(=O)OCc2ccccc2)(C(=O)N[C@@H](CCc2ccccc2)C(=O)CO)CC1 | 23.3 | > 50 | 47.2 |
| CC(=O)OCC(=O)[C@H](CCc1ccccc1)NC(=O)C1(NC(=O)OCc2ccccc2)CCSCC1 | > 50 | 33.9 | > 50 |
| O=C(NC1(C(=O)N[C@@H](CCc2ccccc2)C(=O)CO)CCSCC1)OCc1ccccc1 | 28.2 | 3.25 | 8.22 |
| CC(=O)OCC(=O)[C@H](CCc1ccccc1)NC(=O)[C@H](CCc1ccccc1)NC(=O)OCc1ccccc1 | > 50 | 29.7 | > 50 |
| O=C(N[C@@H](CCc1ccccc1)C(=O)N[C@@H](CCc1ccccc1)C(=O)CO)OCc1ccccc1 | 37.2 | 30.1 | 11.9 |
| CC(=O)OCC(=O)[C@H](CCc1ccccc1)NC(=O)C1C2C=CC(C2)C1NC(=O)OCc1ccccc1 (stereo partly specified) | > 50 | > 50 | > 50 |
| O=C(NC1C2C=CC(C2)C1C(=O)N[C@@H](CCc1ccccc1)C(=O)CO)OCc1ccccc1 (stereo partly specified) | 47.2 | 33.6 | 25.4 |
| O=C(CO)[C@H](CCc1ccccc1)NC(=O)[C@@H]1C[C@@H](O)CN1C(=O)OCc1ccccc1 | 7.7 | 0.08 | 0.06 |
| O=C(CSCCCc1ccccc1)[C@H](CCc1ccccc1)NC(=O)[C@@H]1C[C@@H](O)CN1C(=O)OCc1ccccc1 | 19.6 | 1.1 | 0.52 |
| CC(=O)SCC(=O)[C@H](CCc1ccccc1)NC(=O)[C@@H]1C[C@@H](O)CN1C(=O)OCc1ccccc1 | 18.6 | > 50 | 3.56 |
| O=C(CN1CCOCC1)[C@H](CCc1ccccc1)NC(=O)[C@@H]1C[C@@H](O)CN1C(=O)OCc1ccccc1 | 10.2 | > 50 | > 50 |
